Test results taken from US20230020329A1, “Annelated 9-hydroxy-1,8-dioxo-1,3,4,8-tetrahydro-2H-pyrido[1,2-a]pyrazine-7-carboxamides as HIV integrase inhibitors, methods of preparation and application thereof” (priority 2019, published 2023).

test system: HIV-1 (IIIB strain); experiment: Anti-HIV cytoprotection assay (XTT), HIV-1 IIIB in CEM-SS cells; assay type: cell-based; conditions: Human immunodeficiency virus 1, IIIB, CEM-SS, CEM-SS cell line; read-out: Inhibitory activity (EC50) against HIV-1 (IIIB strain)
Source text: a) Inhibitory Activity of the Lymphocytropic Virus Strain HIV-1 (IIIB) in the CEM-SS Cell Line.
The evaluation was done by ImQuest BioSciences, Inc. (Frederick, Md., USA). CEM-SS cells [Foley G. E. et al. Continuous Culture of Human Lymphoblasts from Peripheral Blood of a Child with Acute Leukemia. Cancer 1965, 18, 522-529] obtained through the NIH AIDS Research and Reference Reagent Program (Manassas, Va., USA) were passaged in T-75 flasks prior to use cell culture medium consisting of RPMI1640 medium (Lonza; Walkersville, Md., USA) supplemented with 10% heat inactivated fetal bovine serum (Gibco; Grand Island, N.Y.), […] L-glutamine (Lonza), […] penicillin (Lonza) and […] streptomycin (Lonza) for antiviral analysis. The CEM-SS cells were kept in RPMI 140 medium supplemented with 10% heat inactivated bovine fetal serum, 2 mM glutamine, 100 U/ml penicillin, and 100 μg/ml streptomycin.
A lymphocytropic HIV-1 IIIB strain [Popovic, M. et al. Detection, isolation, and continuous production of cytopathic retroviruses (HTLV-III) from patients with AIDS and pre-AIDS. Science. 1984, 224 (4648), 497-500] was chosen for a virus to be analyzed. The virus was obtained through the NIH AIDS Research and Reference Reagents Program and grown in CEM-SS cells to produce a stock virus pool. A pre-titrated aliquot of the virus was removed from the freezer (−80° C.) and allowed to slowly thaw to room temperature in a biological safety cabinet. The virus was diluted in a tissue culture medium so that the amount of virus added in 50 μl per well was sufficient to kill 85 to 95% of the cells 6 days after infection. HIV-1 IIIB was grown and titrated in CEM-SS cells. The inhibitory effect of […] was evaluated in CEM-SS cells as described earlier [Nara, P. L. at al. Simple, rapid, quantitative, syncytium-forming microassay for the detection of human immunodeficiency virus neutralizing antibody. AIDS Res. Hum. Retroviruses 1987, 3, 283-302.] in microtiter plate anti-HIV assays to quantitatively assess the ability of a compound to inhibit HIV-induced cell death. Quantification was carried out using 2,3-bis-(2-methoxy-4-nitro-5-[…])-(2H)-tetrazolium-5-carboxanilide (XTT) tetrazolium, which is metabolized to a stained formazan product through viable […] The compounds given in Table 1 were dissolved at 10 μM in DMSO and stored at −20° C.
Test materials were evaluated using antiviral assays in triplicate in concentrations of 30 and 10 nM. The compounds shown in table 1 were dissolved at 10 μM in DMSO and stored at −20° C. […] Sixty nanomolar concentrations of each compound (2 times that of the test concentration in the well) were prepared by diluting 10 μM DMSO stock 1:100 in cell culture medium (10 μl of compound added to 990 μl of the medium) followed by 1:10 dilution (10 μl of the compound was added to 90 μl of the medium), then 6 μl was added to 994 μl of the medium; […] μl was added to a 96-well microtiter plate in triplicate to ensure efficacy and one colorimetric well. Twenty nanomolar concentrations of each compound (twice as much as the test concentration in the well) were prepared by diluting 10 μM DMSO with the original 1:100 in cell culture medium (10 μl of the compound added to 990 μl of the medium) followed by diluting […] (10 μl of the compound was added to 900 μl of the medium), then 20 μl was added to 980 μl of the medium; 100 μl was added to a 96-well microtiter plate in triplicate to ensure efficacy and one colorimetric well.
Azidothymidine (AZT) was purchased from Sigma Aldrich (USA) and evaluated as a positive control compound in an antiviral assay using a six-concentration reaction curve on each assay plate.
Test compounds were initially evaluated for HIV-1 IIIB strain in CEM-SS cells at test concentrations of 30 and 10 nM. […]

| EC50 | Structure (SMILES) |
| --- | --- |
| 0.002 to 0.01 µM | C[C@@H]1CCO[C@H]2Cn3cc(C(=O)NCc4c(F)cncc4F)c(=O)c(O)c3C(=O)N12 [Compound 1.2.4, (4R,12aS)-7-hydroxy-N-[(3,5-difluoropyridin-4-yl)methyl]-4-methyl-6,8-dioxo-3,4,6,8,12,12a-hexahydro-2H-pyrido[1′,2′:4,5]pyrazino[2,1-b][1,3]oxazine-9-carboxamide] |
| 0.002 to 0.01 µM | C[C@@H]1CO[C@@]23CCC[C@@H]2n2cc(C(=O)NCc4c(F)cc(F)nc4F)c(=O)c(O)c2C(=O)N13 [Compound 2.1.3, (3aS,6R,13aS)-9-hydroxy-6-methyl-N-[(2,4,6-trifluoropyridin-3-yl)methyl]-8,10-dioxo-1,2,3,5,6,8,10,13a-octahydrocyclopenta[b][1,3]oxazolo[3,2-a]pyrido[1,2-d]pyrazine-11-carboxamide] |
| > 0.03 µM | Cc1ccc2[nH]c(CNC(=O)c3cn4c(c(O)c3=O)C(=O)N3[C@@H](C)CO[C@@H]3C4)nc2c1 [Compound 1.1.40, (3S,11aR)-6-hydroxy-3-methyl-N-[(5-methyl-1H-benzimidazol-2-yl)methyl]-5,7-dioxo-2,3,5,7,11,11a-hexahydro[1,3]oxazolo[3,2-a]pyrido[1,2-d]pyrazine-8-carboxamide] |
| > 0.03 µM | C[C@H]1CO[C@@H]2Cn3cc(C(=O)NCc4nc5ccc(Cl)cc5n4C)c(=O)c(O)c3C(=O)N12 [Compound 1.1.43, (3S,11aR)-6-hydroxy-3-methyl-N-[(1-methyl-6-chlorobenzimidazol-2-yl)methyl]-5,7-dioxo-2,3,5,7,11,11a-hexahydro[1,3]oxazolo[3,2-a]pyrido[1,2-d]pyrazine-8-carboxamide] |
| > 0.03 µM | C[C@H]1CO[C@@H]2Cn3cc(C(=O)NCc4nc5cc(Cl)ccc5o4)c(=O)c(O)c3C(=O)N12 [Compound 1.1.38, (3S,11aR)-6-hydroxy-3-methyl-N-[(5-chloro-1,3-benzoxazol-2-yl)methyl]-5,7-dioxo-2,3,5,7,11,11a-hexahydro[1,3]oxazolo[3,2-a]pyrido[1,2-d]pyrazine-8-carboxamide] |
| < 0.002 µM | C[C@H]1CO[C@@H]2Cn3cc(C(=O)NCc4ccnc5ccccc45)c(=O)c(O)c3C(=O)N12 [Compound 1.1.65, (3S,11aR)-6-hydroxy-3-methyl-N-(quinolin-4-ylmethyl)-5,7-dioxo-2,3,5,7,11,11a-hexahydro[1,3]oxazolo[3,2-a]pyrido[1,2-d]pyrazine-8-carboxamide] |
| ~0.01 µM | C[C@H]1CO[C@@]23CCC[C@@H]2n2cc(C(=O)NCc4ccc(F)nc4F)c(=O)c(O)c2C(=O)N13 [Compound 2.2.1, (3aS,6S,13aS)-9-hydroxy-N-[(2,6-difluoropyridin-3-yl)methyl]-6-methyl-8,10-dioxo-1,2,3,5,6,8,10,13a-octahydrocyclopenta[b][1,3]oxazolo[3,2-a]pyrido[1,2-d]pyrazine-11-carboxamide] |
| > 0.03 µM | C[C@H]1CO[C@@H]2Cn3cc(C(=O)NCc4cnc5cnccn45)c(=O)c(O)c3C(=O)N12 [Compound 1.1.59, (3S,11aR)-6-hydroxy-N-(imidazo[1,2-a]pyrazin-3-ylmethyl)-3-methyl-5,7-dioxo-2,3,5,7,11,11a-hexahydro[1,3]oxazolo[3,2-a]pyrido[1,2-d]pyrazine-8-carboxamide] |
| > 0.03 µM | CC(C)n1c(CNC(=O)c2cn3c(c(O)c2=O)C(=O)N2[C@@H](C)CO[C@@H]2C3)nc2ccc(Cl)cc21 [Compound 1.1.45, (3S,11aR)-6-hydroxy-3-methyl-N-[(6-chloro-1-isopropyl-1H-benzimidazol-2-yl)methyl]-5,7-dioxo-2,3,5,7,11,11a-hexahydro[1,3]oxazolo[3,2-a]pyrido[1,2-d]pyrazine-8-carboxamide] |
| 0.002 to 0.01 µM | C[C@H]1CO[C@@H]2Cn3cc(C(=O)NCc4cnc5ccccc5c4)c(=O)c(O)c3C(=O)N12 [Compound 1.1.50, (3S,11aR)-6-hydroxy-3-methyl-N-(quinolin-3-ylmethyl)-5,7-dioxo-2,3,5,7,11,11a-hexahydro[1,3]oxazolo[3,2-a]pyrido[1,2-d]pyrazine-8-carboxamide] |

Second part, the molecule before the results:

| Structure (SMILES) | EC50 |
| --- | --- |
| Cc1ccc(CNC(=O)c2cn3c(c(O)c2=O)C(=O)N2[C@@H](C)CO[C@@H]2C3)o1 [Compound 1.1.3, (3S,11aR)-6-hydroxy-3-methyl-N-[(5-methyl-2-furyl)methyl]-5,7-dioxo-2,3,5,7,11,11a-hexahydro[1,3]oxazolo[3,2-a]pyrido[1,2-d]pyrazine-8-carboxamide] | 0.002 to 0.01 µM |
| Cc1nnsc1CNC(=O)c1cn2c(c(O)c1=O)C(=O)N1[C@@H](C)CO[C@@H]1C2 [Compound 1.1.11, (3S,11aR)-6-hydroxy-3-methyl-N-[(4-methyl-1,2,3-thiadiazol-5-yl)methyl]-5,7-dioxo-2,3,5,7,11,11a-hexahydro[1,3]oxazolo[3,2-a]pyrido[1,2-d]pyrazine-8-carboxamide] | > 0.03 µM |
| C[C@H]1CO[C@@H]2Cn3cc(C(=O)NCc4nncn4C)c(=O)c(O)c3C(=O)N12 [Compound 1.1.14, (3S,11aR)-6-hydroxy-3-methyl-N-[(4-methyl-4H-1,2,4-triazol-3-yl)methyl]-5,7-dioxo-2,3,5,7,11,11a-hexahydro[1,3]oxazolo[3,2-a]pyrido[1,2-d]pyrazine-8-carboxamide] | ~0.01 µM |
| C[C@H]1CO[C@@H]2Cn3cc(C(=O)NCc4ccc(Cl)nc4)c(=O)c(O)c3C(=O)N12 [Compound 1.1.18, (3S,11aR)-6-hydroxy-N-[(6-chloropyridin-3-yl)methyl]-3-methyl-5,7-dioxo-2,3,5,7,11,11a-hexahydro[1,3]oxazolo[3,2-a]pyrido[1,2-d]pyrazine-8-carboxamide] | 0.01 to 0.03 µM |
| C[C@H]1CO[C@@H]2Cn3cc(C(=O)NCc4nccs4)c(=O)c(O)c3C(=O)N12 [Compound 1.1.8, (3S,11aR)-6-hydroxy-3-methyl-N-(1,3-thiazol-2-ylmethyl)-5,7-dioxo-2,3,5,7,11,11a-hexahydro[1,3]oxazolo[3,2-a]pyrido[1,2-d]pyrazine-8-carboxamide] | 0.002 to 0.01 µM |
| Cc1nn(C)c(C)c1CNC(=O)c1cn2c(c(O)c1=O)C(=O)N1[C@@H](C)CO[C@@H]1C2 [Compound 1.1.5, (3S,11aR)-6-hydroxy-3-methyl-N-[(1,3,5-trimethyl-1H-pyrazol-4-yl)methyl]-5,7-dioxo-2,3,5,7,11,11a-hexahydro[1,3]oxazolo[3,2-a]pyrido[1,2-d]pyrazine-8-carboxamide] | 0.01 to 0.03 µM |
| C[C@H]1CO[C@@H]2Cn3cc(C(=O)NCc4ccc5sccc5c4)c(=O)c(O)c3C(=O)N12 [Compound 1.1.31, (3S,11aR)-N-(1-benzothien-5-ylmethyl)-6-hydroxy-3-methyl-5,7-dioxo-2,3,5,7,11,11a-hexahydro[1,3]oxazolo[3,2-a]pyrido[1,2-d]pyrazine-8-carboxamide] | 0.002 to 0.01 µM |
| C[C@H]1CO[C@@H]2Cn3cc(C(=O)NCc4cc5c(cc4Br)OCO5)c(=O)c(O)c3C(=O)N12 [Compound 1.1.35, (3S,11aR)-N-[(6-bromo-1,3-benzodioxol-5-yl)methyl]-6-hydroxy-3-methyl-5,7-dioxo-2,3,5,7,11,11a-hexahydro[1,3]oxazolo[3,2-a]pyrido[1,2-d]pyrazine-8-carboxamide] | < 0.002 µM |
| C[C@H]1CO[C@@H]2Cn3cc(C(=O)NCc4cn5ncsc5n4)c(=O)c(O)c3C(=O)N12 [Compound 1.1.29, (3S,11aR)-6-hydroxy-N-(imidazo[2,1-b][1,3,4]thiadiazol-6-ylmethyl)-3-methyl-5,7-dioxo-2,3,5,7,11,11a-hexahydro[1,3]oxazolo[3,2-a]pyrido[1,2-d]pyrazine-8-carboxamide] | > 0.03 µM |
